Experimental data: ChEMBL document CHEMBL1201861, “Genomics of Drug Sensitity in Cancer screening data, Wellcome Trust Sanger Institute”

Columns and labels:
Experiment in all cases: cells
HGC-27 = format: functional, cell-based, Homo sapiens; conditions: Homo sapiens, HGC-27;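 note: growth inhibition of human HGC-27 cells, read out in a cell viability assay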
Description: SANGER: Inhibition of human HGC-27 cell growth in a cell viability assay.

HuTu80 = format: functional, cell-based, Homo sapiens, HUTU-80; conditions: Homo sapiens, HuTu80;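 note: growth inhibition of HuTu80 human cells, determined with a cell viability readout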
Description: SANGER: Inhibition of human HUTU-80 cell growth in a cell viability assay.

ML-2 = format: functional, cell-based; conditions: Homo sapiens;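 note: growth inhibition of ML-2 cells, measured with a cell viability readout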
Description: SANGER: Inhibition of human ML-2 cell growth in a cell viability assay.

CAKI-1 = format: functional, cell-based, Homo sapiens; conditions: Homo sapiens, CAKI-1;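 note: growth inhibition of CAKI-1 cells, measured by a cell viability assay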
Description: SANGER: Inhibition of human CAKI-1 cell growth in a cell viability assay.

HOP-62 = format: functional, cell-based, Homo sapiens; conditions: Homo sapiens, HOP-62;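 note: cell growth inhibition determined with a viability assay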
Description: SANGER: Inhibition of human HOP-62 cell growth in a cell viability assay.

A-427 = format: functional, cell-based, Homo sapiens; conditions: Homo sapiens, A-427;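 note: growth inhibition of human A-427 cells, read out by a cell viability assay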
Description: SANGER: Inhibition of human A427 cell growth in a cell viability assay.

J82 = format: functional, cell-based; conditions: Homo sapiens;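 note: growth inhibition of J82 cells, read out with a cell viability assay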
Description: SANGER: Inhibition of human J82 cell growth in a cell viability assay.

HLE = format: functional, cell-based, Homo sapiens; conditions: Homo sapiens, HLE;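 note: growth inhibition of human HLE cells, read out by a cell viability assay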
Description: SANGER: Inhibition of human HLE cell growth in a cell viability assay.

TGBC24TKB = format: functional, cell-based, Homo sapiens; conditions: Homo sapiens, TGBC24TKB;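 note: growth inhibition of human TGBC24TKB cells, read out with a cell viability assay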
Description: SANGER: Inhibition of human TGBC24TKB cell growth in a cell viability assay.

NCI-H661 = format: functional, cell-based, Homo sapiens; conditions: Homo sapiens, NCI-H661;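 note: cell viability assay read-out, IC50 being the concentration that inhibits growth of the cells by half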
Description: SANGER: Inhibition of human NCI-H661 cell growth in a cell viability assay.

HCC1937 = format: functional, cell-based, Homo sapiens; conditions: Homo sapiens, HCC1937;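 note: growth inhibition measured with a cell viability read-out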
Description: SANGER: Inhibition of human HCC1937 cell growth in a cell viability assay.

LB373-MEL-D = format: functional, cell-based, Homo sapiens; conditions: Homo sapiens, LB373-MEL-D;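 note: growth inhibition of the cell line, read out in a cell viability assay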
Description: SANGER: Inhibition of human LB373-MEL-D cell growth in a cell viability assay.

NB17 = format: functional, cell-based; conditions: Homo sapiens;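 note: growth inhibition of NB17 cells, read out with a cell viability assay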
Description: SANGER: Inhibition of human NB17 cell growth in a cell viability assay.

KMOE-2 = format: functional, cell-based; conditions: Homo sapiens;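 note: growth inhibition of human KMOE-2 cells, read out with a cell viability assay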
Description: SANGER: Inhibition of human KMOE-2 cell growth in a cell viability assay.

NCI-H1770 = format: functional, cell-based; conditions: Homo sapiens;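 note: growth inhibition of NCI-H1770 cells determined with a viability readout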
Description: SANGER: Inhibition of human NCI-H1770 cell growth in a cell viability assay.

PSN1 = format: functional, cell-based, Homo sapiens; conditions: Homo sapiens, PSN1;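 note: suppression of growth of human PSN1 cells, read out by a cell viability assay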
Description: SANGER: Inhibition of human PSN1 cell growth in a cell viability assay.

EW-1 = format: functional, cell-based, Homo sapiens; conditions: Homo sapiens, EW-1
Description: SANGER: Inhibition of human EW-1 cell growth in a cell viability assay.

NCI-H1993 = format: functional, cell-based, Homo sapiens; conditions: Homo sapiens, NCI-H1993;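 note: growth inhibition of the cancer cell line, assessed with a cell viability assay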
Description: SANGER: Inhibition of human NCI-H1993 cell growth in a cell viability assay.

PC-14 = format: functional, cell-based, Homo sapiens; conditions: Homo sapiens, PC-14;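 note: cell viability assay measuring inhibition of PC-14 cell growth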
Description: SANGER: Inhibition of human PC-14 cell growth in a cell viability assay.

NB14 = format: functional, cell-based; conditions: Homo sapiens;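 note: growth inhibition of NB14 cells measured with a cell viability assay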
Description: SANGER: Inhibition of human NB14 cell growth in a cell viability assay.

P12-Ichikawa = format: functional, cell-based; conditions: Homo sapiens
COLO-320-HSR = format: functional, cell-based; conditions: Homo sapiens;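 note: growth inhibition of COLO-320-HSR cells, determined with a cell viability assay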
Description: SANGER: Inhibition of human COLO-320-HSR cell growth in a cell viability assay.

ES1 = format: functional, cell-based, Homo sapiens; conditions: Homo sapiens, ES1;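 note: growth inhibition of ES1 cells, read out with a cell viability assay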
Description: SANGER: Inhibition of human ES1 cell growth in a cell viability assay.

EFO-27 = format: functional, cell-based, Homo sapiens; conditions: Homo sapiens, EFO-27;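 note: growth inhibition of EFO-27 cells, read out with a cell viability assay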
Description: SANGER: Inhibition of human EFO-27 cell growth in a cell viability assay.

NCI-H1395 = format: functional, cell-based, Homo sapiens; conditions: Homo sapiens, NCI-H1395;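 note: cell viability assay read-out quantifying reduced proliferation of human NCI-H1395 cells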
Description: SANGER: Inhibition of human NCI-H1395 cell growth in a cell viability assay.

TE-9 = format: functional, cell-based, Homo sapiens; conditions: Homo sapiens, TE-9;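 note: cell growth inhibition, measured with a cell viability readout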
Description: SANGER: Inhibition of human TE-9 cell growth in a cell viability assay.

DSH1 = format: functional, cell-based, Homo sapiens; conditions: Homo sapiens, DSH1;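 note: growth inhibition of human DSH1 cells, measured with a cell viability readout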
Description: SANGER: Inhibition of human DSH1 cell growth in a cell viability assay.

Lu-65 = format: functional, cell-based; conditions: Homo sapiens;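 note: growth inhibition of Lu-65 cancer cells, read out by a cell viability assay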
Description: SANGER: Inhibition of human LU-65 cell growth in a cell viability assay.

KU-19-19 = format: functional, cell-based, Homo sapiens; conditions: Homo sapiens, KU-19-19
Description: SANGER: Inhibition of human KU-19-19 cell growth in a cell viability assay.

SNU1 = format: functional, cell-based; conditions: Homo sapiens;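 note: growth inhibition of human NCI-SNU-1 cells, measured with a cell viability assay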
Description: SANGER: Inhibition of human NCI-SNU-1 cell growth in a cell viability assay.

EW-11 = format: functional, cell-based, Homo sapiens; conditions: Homo sapiens, EW-11;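 note: growth inhibition of human EW-11 cells, measured with a cell viability assay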
Description: SANGER: Inhibition of human EW-11 cell growth in a cell viability assay.

SAS = format: functional, cell-based, Homo sapiens; conditions: Homo sapiens, SAS;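 note: growth inhibition of SAS cells, read out with a cell viability assay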
Description: SANGER: Inhibition of human SAS cell growth in a cell viability assay.

SW 962 = format: functional, cell-based, Homo sapiens; conditions: Homo sapiens, SW 962;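 note: growth inhibition of human SW962 cells, read out by a cell viability assay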
Description: SANGER: Inhibition of human SW962 cell growth in a cell viability assay.

SK-MEL-1 = format: functional, cell-based; conditions: Homo sapiens;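 note: growth inhibition of human SK-MEL-1 cells, read out by a cell viability assay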
Description: SANGER: Inhibition of human SK-MEL-1 cell growth in a cell viability assay.

PA-1 = format: functional, cell-based, Homo sapiens; conditions: Homo sapiens, PA-1;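 note: IC50 for suppression of PA-1 cell proliferation, determined with a cell viability read-out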
Description: SANGER: Inhibition of human PA-1 cell growth in a cell viability assay.

LS-1034 = format: functional, cell-based, Homo sapiens; conditions: Homo sapiens, LS-1034
Description: SANGER: Inhibition of human LS-1034 cell growth in a cell viability assay.

CGTH-W-1 = format: functional, cell-based, Homo sapiens; conditions: Homo sapiens, CGTH-W-1;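 note: growth inhibition of human CGTH-W-1 cells measured by cell viability assay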
Description: SANGER: Inhibition of human CGTH-W-1 cell growth in a cell viability assay.

OVCAR-8 = format: functional, cell-based, Homo sapiens; conditions: Homo sapiens, OVCAR-8;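 note: growth inhibition of human OVCAR-8 cells, read out by a cell viability assay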
Description: SANGER: Inhibition of human OVCAR-8 cell growth in a cell viability assay.

786-0 = format: functional, cell-based, Homo sapiens; conditions: Homo sapiens
Description: SANGER: Inhibition of human 786-0 cell growth in a cell viability assay.

SW1463 = format: functional, cell-based, Homo sapiens; conditions: Homo sapiens, SW1463;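 note: growth inhibition of SW1463 cells, determined with a cell viability assay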
Description: SANGER: Inhibition of human SW1463 cell growth in a cell viability assay.

LK-2 = format: functional, cell-based, Homo sapiens; conditions: Homo sapiens, LK-2;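 note: growth inhibition of LK-2 cells, read out with a viability assay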
Description: SANGER: Inhibition of human LK-2 cell growth in a cell viability assay.

5637 = format: functional, cell-based, Homo sapiens; conditions: Homo sapiens
Description: SANGER: Inhibition of human 5637 cell growth in a cell viability assay.

RMG-I = format: functional, cell-based, Homo sapiens; conditions: Homo sapiens, RMG-I;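 note: growth inhibition of human RMG-I cells, read out with a cell viability assay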
Description: SANGER: Inhibition of human RMG-I cell growth in a cell viability assay.

SiHa = format: functional, cell-based, Homo sapiens; conditions: Homo sapiens, SiHa;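 note: Viability-based readout of growth inhibition in SiHa cells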
Description: SANGER: Inhibition of human SiHa cell growth in a cell viability assay.

MFH-ino = format: functional, cell-based; conditions: Homo sapiens;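 note: growth inhibition of human MFH-ino cells, read out by a cell viability assay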
Description: SANGER: Inhibition of human MFH-ino cell growth in a cell viability assay.

CHL-1 = format: functional, cell-based, Homo sapiens; conditions: Homo sapiens, CHL-1;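 note: cell growth inhibition, read out with a cell viability assay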
Description: SANGER: Inhibition of human CHL-1 cell growth in a cell viability assay.

NCI-H446 = format: functional, cell-based; conditions: Homo sapiens;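 note: growth inhibition of NCI-H446 cells determined by a cell viability assay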
Description: SANGER: Inhibition of human NCI-H446 cell growth in a cell viability assay.

EGI-1 = format: functional, cell-based, Homo sapiens; conditions: Homo sapiens, EGI-1;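 note: cell viability readout used to gauge growth inhibition of EGI-1 cells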
Description: SANGER: Inhibition of human EGI-1 cell growth in a cell viability assay.

MC-IXC = format: functional, cell-based, Homo sapiens; conditions: Homo sapiens, MC-IXC;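 note: growth inhibition of MC-IXC cells, read out with a cell viability assay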
Description: SANGER: Inhibition of human MC-IXC cell growth in a cell viability assay.

Structure (SMILES): Cn1cc(C2=C(c3ccc(Cl)cc3Cl)C(=O)NC2=O)c2ccccc21 [SB-216763]
- IC50 (HGC-27): > 10 µM
- IC50 (HuTu80): > 10 µM
- IC50 (ML-2): > 10 µM
- IC50 (CAKI-1): > 10 µM
- IC50 (HOP-62): 0.853 µM
- IC50 (A-427): > 10 µM
- IC50 (J82): > 10 µM
- IC50 (HLE): > 10 µM
- IC50 (TGBC24TKB): > 10 µM
- IC50 (NCI-H661): > 10 µM
- IC50 (HCC1937): > 10 µM
- IC50 (LB373-MEL-D): > 10 µM
- IC50 (NB17): > 10 µM
- IC50 (KMOE-2): > 10 µM
- IC50 (NCI-H1770): 0.294 µM
- IC50 (PSN1): > 10 µM
- IC50 (EW-1): > 10 µM
- IC50 (NCI-H1993): 8.37 µM
- IC50 (PC-14): > 10 µM
- IC50 (NB14): > 10 µM
- IC50 (P12-Ichikawa): > 10 µM
- IC50 (COLO-320-HSR): > 10 µM
- IC50 (ES1): > 10 µM
- IC50 (EFO-27): > 10 µM
- IC50 (NCI-H1395): > 10 µM
- IC50 (TE-9): > 10 µM
- IC50 (DSH1): > 10 µM
- IC50 (Lu-65): > 10 µM
- IC50 (KU-19-19): > 10 µM
- IC50 (SNU1): > 10 µM
- IC50 (EW-11): > 10 µM
- IC50 (SAS): > 10 µM
- IC50 (SW 962): > 10 µM
- IC50 (SK-MEL-1): > 10 µM
- IC50 (PA-1): > 10 µM
- IC50 (LS-1034): > 10 µM
- IC50 (CGTH-W-1): > 10 µM
- IC50 (OVCAR-8): > 10 µM
- IC50 (786-0): > 10 µM
- IC50 (SW1463): > 10 µM
- IC50 (LK-2): > 10 µM
- IC50 5637: > 10 µM
- IC50 (RMG-I): > 10 µM
- IC50 (SiHa): > 10 µM
- IC50 (MFH-ino): > 10 µM
- IC50 (CHL-1): > 10 µM
- IC50 (NCI-H446): > 10 µM
- IC50 (EGI-1): > 10 µM
- IC50 (MC-IXC): > 10 µM
